Data as given in patent US4610977A, “N-alkyl and N-benzyl adriamycin derivatives” (The University of Tennessee Research Corporation, priority 1985, dated 1986).
pIC50: −log10 of the molar value. Like-named read-outs stand apart in the source and are kept apart here.

Key:
[1] = In vivo antitumor activity against murine L1210 leukemia in B6D2F1 male mice; details: mouse, in vivo, ip
Description: (§1) The in vivo evaluations were made by preparing a 0.01 to 0.4% by weight solution of the active agent in an aqueous solution of polyethoxylated castor oil (10% by volume) and ethanol (10% by volume) as a carrier and injecting the dosage intraperitoneally. The evaluations were made of the antitumor activity against the murine P 388 and L1210 leukemias in B6D2F1 male mice essentially according to standard National Cancer Institute protocols as set forth by Geran et al., Cancer Chemotherap. Rep., Part 3, Volume 3, pages 1 et seq.

[2] = test system: murine L1210 leukemia; experiment: as above; details: L1210, qd 1-4; for % ILS (percent median increase in life span relative to untreated controls): at optimal dose (Examples 1/2/3: 12.5/20.0/25.0, adriamycin 3.0 mg/kg); for % ILS (percent median increase in life span relative to untreated controls) / LTS (tumor free long term survivors): ip; for LTS (tumor free long term survivors): at optimal dose, day of sacrifice: Examples 1-3 42
Description: as §1

[3] = test system: malignant tumors; details: cited from earlier work; for Clinical antitumor effectiveness: certain malignant tumors, e.g. induction of remission in acute leukemia; for Toxicities accompanying chemotherapy: limit effectiveness, particularly long-term use
[4] = in vivo; details: mouse, ip
Description: as §1

[5] = test system: CCRF-CEM cell line; experiment: Growth inhibition of CCRF-CEM cells in culture, 48 hours continuous drug exposure; format: cell-based, child with lymphoblastic leukemia; details: Homo sapiens
Protocol: The toxicity and therapeutic effectiveness of the new compounds and active agents of the present invention are shown by in vitro assays and by in vivo evaluations in mice. The in vitro assays measure the growth inhibiting activity of the materials against the CCRF-CEM cell line in culture. The cell line was derived from the peripheral blood of a child with lymphoblastic leukemia as described by Foley et al., Cancer, Volume 18, page 522 et seq. (1965), and the assays were carried out by the procedure of Foley and Lazarus, Biochem. Pharmacol., Vol. 16, pages 659 et seq. (1967), the compounds being dissolved in dimethyl sulfoxide and diluted into cell culture media to give a final dimethyl sulfoxide concentration of 1%, the results being reported in terms of the dose in micromoles per liter required to inhibit growth of the cultures by 50% relative to control cultures to which no drug had been added (ID50).
^1 Concentration required to inhibit growth of cultures by 50%
relative to untreated controls; 48 hours continuous drug exposure.

[6] = 48 hours continuous drug exposure, final DMSO 1%, read-out: ID50 (concentration required to inhibit growth of cultures by 50% relative to untreated controls)
[7] = 48 hours continuous drug exposure, read-out: ID50, corresponding compounds having different N-substitution

SMILES: COc1cccc2c1C(=O)c1c(O)c3c(c(O)c1C2=O)C[C@@](O)(C(=O)CO)C[C@@H]3O[C@H]1C[C@H](N)[C@H](O)[C@H](C)O1 [Adriamycin]
- MTD [1]: 3 mg/kg
- All animals dead by day ([2]; adriamycin 3.0 mg/kg, footnote 4): ≤ 22 days
- % ILS (percent median increase in life span relative to untreated controls) [2]: +90%
- LTS (tumor free long term survivors) [2]: 0/7
- Clinical antitumor effectiveness [3]: effective clinically against certain malignant tumors
- Clinical efficacy against certain solid tumors ([3]; certain solid tumors): has shown clinical efficacy against certain solid tumors
- Toxicities accompanying chemotherapy [3]: a variety of toxicities

SMILES: CCCCN(CCCC)[C@H]1C[C@H](O[C@H]2C[C@](O)(C(=O)CO)Cc3c(O)c4c(c(O)c32)C(=O)c2c(OC)cccc2C4=O)O[C@@H](C)[C@H]1O [Di-n-butyl]
- MTD [4]: 25 mg/kg

SMILES: CCCN(CCC)[C@H]1C[C@H](O[C@H]2C[C@](O)(C(=O)CO)Cc3c(O)c4c(c(O)c32)C(=O)c2c(OC)cccc2C4=O)O[C@@H](C)[C@H]1O [Di-n-propyl]
- MTD [4]: 20 mg/kg

SMILES: CCCCC(=O)OCC(=O)[C@]1(O)Cc2c(O)c3c(c(O)c2[C@@H](O[C@H]2C[C@H](NCc4ccccc4)[C@H](O)[C@H](C)O2)C1)C(=O)c1c(OC)cccc1C3=O [Example 1, N-Benzyladriamycin-14-valerate]
- pIC50 [5, 6]: 6.00
- MTD [4]: 10 mg/kg
- MTD [1]: 12.5 mg/kg
- % ILS (percent median increase in life span relative to untreated controls) [2]: > +350%
- LTS (tumor free long term survivors) [2]: 5/7

SMILES: CCCCC(=O)OCC(=O)[C@]1(O)Cc2c(O)c3c(c(O)c2[C@@H](O[C@H]2C[C@H](N(CCC)CCC)[C@H](O)[C@H](C)O2)C1)C(=O)c1c(OC)cccc1C3=O [Example 2, N,N-Di(n-propyl)adriamycin-14-valerate]
- pIC50 [5, 6]: 5.72
- MTD [4]: 20 mg/kg
- MTD [1]: 20 mg/kg
- % ILS (percent median increase in life span relative to untreated controls) [2]: > +350%
- LTS (tumor free long term survivors) [2]: 4/7

SMILES: CCCCC(=O)OCC(=O)[C@]1(O)Cc2c(O)c3c(c(O)c2[C@@H](O[C@H]2C[C@H](N(CCCC)CCCC)[C@H](O)[C@H](C)O2)C1)C(=O)c1c(OC)cccc1C3=O [Example 3, N,N-Di(n-butyl)adriamycin-14-valerate]
- pIC50 [5, 6]: 5.68
- MTD [4]: 30 mg/kg
- MTD [1]: 25 mg/kg
- % ILS (percent median increase in life span relative to untreated controls) [2]: > +350%
- LTS (tumor free long term survivors) [2]: 5/7

SMILES: COc1cccc2c1C(=O)c1c(O)c3c(c(O)c1C2=O)C[C@@](O)(C(=O)CO)C[C@@H]3O[C@H]1C[C@H](NCc2ccccc2)[C@H](O)[C@H](C)O1 [Mono-N--benzyl]
- MTD [4]: 5 mg/kg

SMILES: COc1cccc2c1C(=O)c1c(O)c3c(c(O)c1C2=O)C[C@@](O)(C(C)=O)C[C@@H]3O[C@H]1C[C@H](N)[C@H](O)[C@H](C)O1 [daunomycin]
- Clinical antitumor effectiveness [3]: effective clinically against certain malignant tumors
- Toxicities accompanying chemotherapy [3]: a variety of toxicities

SMILES: CCCCCCN(CCCCCC)[C@H]1C[C@H](O[C@H]2C[C@](O)(C(=O)COC(=O)CCCC)Cc3c(O)c4c(c(O)c32)C(=O)c2c(OC)cccc2C4=O)O[C@@H](C)[C@H]1O [di-n-hexyl]
- pIC50 [5, 7]: 5.60
- MTD [4]: 40 mg/kg

SMILES: CCCCC(=O)OCC(=O)[C@]1(O)Cc2c(O)c3c(c(O)c2[C@@H](O[C@H]2C[C@H](N(Cc4ccccc4)Cc4ccccc4)[C@H](O)[C@H](C)O2)C1)C(=O)c1c(OC)cccc1C3=O [dibenzyl]
- pIC50 ([5]; 48 h, read-out: ID50, corresponding compounds having different N-substitution): < 5.30
- MTD [4]: 20 mg/kg

SMILES: CCCCC(=O)OCC(=O)[C@]1(O)Cc2c(O)c3c(c(O)c2[C@@H](O[C@H]2C[C@H](N(CC)CC)[C@H](O)[C@H](C)O2)C1)C(=O)c1c(OC)cccc1C3=O [diethyl]
- pIC50 [5, 7]: 6.52
- MTD [4]: 8 mg/kg

SMILES: CCCCC(=O)OCC(=O)[C@]1(O)Cc2c(O)c3c(c(O)c2[C@@H](O[C@H]2C[C@H](N(C)C)[C@H](O)[C@H](C)O2)C1)C(=O)c1c(OC)cccc1C3=O [dimethyl]
- pIC50 [5, 7]: 7.70

SMILES: CCCCC(=O)OCC(=O)[C@]1(O)Cc2c(O)c3c(c(O)c2[C@@H](O[C@H]2C[C@H](NCCC)[C@H](O)[C@H](C)O2)C1)C(=O)c1c(OC)cccc1C3=O [mono-n-propyl, N mono(n-propyl) adriamycin-14-valerate]
- pIC50 [5, 7]: 6.77
- MTD [4]: 15 mg/kg
